Article PMC4049535 (Nature communications, 2013)

Legend:
Antigen 85C (Ag85C) [1] = target: T1, Antigen 85C (Ag85C) (Mycobacterium tuberculosis, UniProt P9WQN9); experiment: resorufin butyrate fluorometric assay dose-dependence; type: biochemical
Antigen 85C (Ag85C) [2] = target: T1, Antigen 85C (Ag85C); experiment: peptide mass fingerprinting of tryptic peptides; type: biochemical

T1 sequence (P9WQN9 46-340): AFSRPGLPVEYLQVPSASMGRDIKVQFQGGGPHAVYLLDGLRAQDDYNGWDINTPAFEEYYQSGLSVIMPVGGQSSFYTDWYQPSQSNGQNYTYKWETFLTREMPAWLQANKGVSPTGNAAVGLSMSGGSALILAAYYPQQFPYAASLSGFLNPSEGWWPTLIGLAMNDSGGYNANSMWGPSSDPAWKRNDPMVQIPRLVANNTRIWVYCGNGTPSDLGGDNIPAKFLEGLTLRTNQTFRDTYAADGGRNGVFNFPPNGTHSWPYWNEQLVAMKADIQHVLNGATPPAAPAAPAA

Row | Structure (SMILES) | Ki (Antigen 85C (Ag85C) [1]) | peptide mass fingerprinting of tryptic peptides (MALDI-MS); activity loss in res (Antigen 85C (Ag85C) [2])
1 | O=c1c2ccccc2[se]n1-c1ccccc1 [EBS, ebselen] | 63 nM | 
2 | NC(=O)CI [IAA, iodoacetamide] |  | 51.2 mM
